Experimental data from PubChem BioAssay AID463099 (The Scripps Research Institute Molecular Screening Center, 2010).

System: IMP-1-expressing E. coli growth, with imipenem, MIC
Experiment: growth inhibition of IMP-1-expressing E. coli, late-stage follow-up, counter-screen for IMP-1/VIM-2 inhibitor project, imipenem co-treatment, MIC (AID 463099)

**Q.** `CC(=O)Nc1cc[c]([Hg+])cc1` was tested. Which MIC did it give?
**A.** The MIC was 2.5 µM.

**Q.** `COc1cccc[c]1[Hg+]` was tested. Which MIC did it give?
**A.** Its MIC is 1.09 µM.

**Q.** Which MIC does the source give for `O=C(O)c1cc[c]([Hg][Cl])cc1` here?
**A.** The MIC was 9.38 µM.

**Q.** With `[Hg+][c]1ccccc1` as the molecule, how does the MIC read?
**A.** Its MIC is 0.63 µM.

**Q.** With `Cc1cc[c]([Hg+])cc1` as the molecule, how does the MIC read?
**A.** The MIC was 0.94 µM.

**Q.** For `O=C(O)c1ccc[c]([Hg+])c1`, which MIC is on record?
**A.** The MIC was 3.75 µM.
